From article PMC5218480 (PLoS ONE, 2017)

System: MV-4-11 cells
Experiment: Gene expression microarray analysis (Affymetrix PrimeView) and GSEA
Type: cell-based, human
Design: RFU PODN (11730768_x_at) / Fold change /veh PODN (11730768_x_at) / RFU LINC00158 (11744669_a_at) / Fold change /veh LINC00158 (11744669_a_at) / RFU DUSP10 (11751237_a_at) / Fold change /veh DUSP10 (11751237_a_at) / RFU ID3 (11757404_x_at) / Fold change /veh ID3 (11757404_x_at) / RFU PLEKHG5 (11737974_s_at) / Fold change /veh PLEKHG5 (11737974_s_at) / RFU LRRC4B (11730491_at) / Fold change /veh LRRC4B (11730491_at) / RFU GIMAP4 (11747438_a_at) / Fold change /veh GIMAP4 (11747438_a_at) / RFU KRT8 (11758183_x_at) / Fold change /veh KRT8 (11758183_x_at) / RFU CNN1 (11734310_a_at) / Fold change /veh CNN1 (11734310_a_at) / RFU VPS37D (11726825_at) / Fold change /veh VPS37D (11726825_at) / RFU C10orf10 (11716522_x_at) / Fold change /veh C10orf10 (11716522_x_at) / RFU KIR2DL2 /// KIR2DL4 /// KIR2DL5A /// KIR2DL5B /// KIR2DS1 /// KIR2DS2 /// KIR2DS3 /// KIR2DS4 /// KIR3DL3 /// KIR3DL3 /// KIR3DS1 (11738374_at) / Fold change /veh KIR2DL2 /// KIR2DL4 /// KIR2DL5A /// KIR2DL5B /// KIR2DS1 /// KIR2DS2 /// KIR2DS3 /// KIR2DS4 /// KIR3DL3 /// KIR3DL3 /// KIR3DS1 (11738374_at) / RFU C1QL1 (11718748_at) / Fold change /veh C1QL1 (11718748_at) / RFU TMPRSS4 (11747572_a_at) / Fold change /veh TMPRSS4 (11747572_a_at) / RFU HAMP (11756126_x_at) / Fold change /veh HAMP (11756126_x_at) / RFU RNFT2 (11725882_a_at) / Fold change /veh RNFT2 (11725882_a_at) / RFU NR4A2 (11747474_a_at) / Fold change /veh NR4A2 (11747474_a_at) / RFU ABCC12 (11746883_a_at) / Fold change /veh ABCC12 (11746883_a_at) / RFU TMEM136 (11760407_x_at) / Fold change /veh TMEM136 (11760407_x_at) / RFU CLDN22 /// WWC2 (11732394_at) / Fold change /veh CLDN22 /// WWC2 (11732394_at) / RFU HLA-DPB1 (11760878_x_at) / Fold change /veh HLA-DPB1 (11760878_x_at) / RFU SPINT1 (11716480_a_at) / Fold change /veh SPINT1 (11716480_a_at) / RFU GAP43 (11754022_s_at) / Fold change /veh GAP43 (11754022_s_at) / RFU A4GNT (11735810_at) / Fold change /veh A4GNT (11735810_at) / RFU PRB3 (11715151_x_at) / Fold change /veh PRB3 (11715151_x_at) / RFU TUBB4B (11761932_at) / Fold change /veh TUBB4B (11761932_at) / RFU CAPN14 (11732068_a_at) / Fold change /veh CAPN14 (11732068_a_at) / RFU TMCC2 (11721928_a_at) / Fold change /veh TMCC2 (11721928_a_at) / RFU IRGQ (11745062_a_at) / Fold change /veh IRGQ (11745062_a_at) / RFU FAM174B (11720279_a_at) / Fold change /veh FAM174B (11720279_a_at) / RFU TMPRSS4 (11748680_a_at) / Fold change /veh TMPRSS4 (11748680_a_at) / RFU FAM212B (11763350_a_at) / Fold change /veh FAM212B (11763350_a_at) / RFU PLEKHG5 (11743358_a_at) / Fold change /veh PLEKHG5 (11743358_a_at) / RFU ZSCAN30 (11745921_a_at) / Fold change /veh ZSCAN30 (11745921_a_at) / RFU CMKLR1 (11741424_a_at) / Fold change /veh CMKLR1 (11741424_a_at) / RFU LOC101060620 /// MAPK8IP1 (11723275_at) / Fold change /veh LOC101060620 /// MAPK8IP1 (11723275_at) / RFU SPTSSB (11747773_x_at) / Fold change /veh SPTSSB (11747773_x_at) / RFU PRSS12 (11739890_at) / Fold change /veh PRSS12 (11739890_at) / RFU BIN1 (11741810_x_at) / Fold change /veh BIN1 (11741810_x_at) / RFU WNT11 (11732464_a_at) / Fold change /veh WNT11 (11732464_a_at) / RFU C10orf10 (11716521_a_at) / Fold change /veh C10orf10 (11716521_a_at) / RFU C5orf56 (11738089_at) / Fold change /veh C5orf56 (11738089_at) / RFU CYB561 (11721691_x_at) / Fold change /veh CYB561 (11721691_x_at) / RFU ANKRD19P (11752326_a_at) / Fold change /veh ANKRD19P (11752326_a_at) / RFU OR2T12 /// OR2T33 /// OR2T8 (11738714_s_at) / Fold change /veh OR2T12 /// OR2T33 /// OR2T8 (11738714_s_at) / RFU VCAN (11748164_a_at) / Fold change /veh VCAN (11748164_a_at) / RFU JSRP1 (11732532_at) / Fold change /veh JSRP1 (11732532_at) / RFU KRTAP10-11 (11738290_x_at) / Fold change /veh KRTAP10-11 (11738290_x_at) / RFU MYO3A (11730013_a_at) / Fold change /veh MYO3A (11730013_a_at) / RFU EBF3 (11725865_a_at) / Fold change /veh EBF3 (11725865_a_at) / RFU CAMK2N1 (11719241_x_at) / Fold change /veh CAMK2N1 (11719241_x_at) / RFU C5orf56 (11738088_a_at) / Fold change /veh C5orf56 (11738088_a_at) / RFU OLFML3 (11715873_a_at) / Fold change /veh OLFML3 (11715873_a_at) / RFU LOC100653217 /// NTM (11731650_a_at) / Fold change /veh LOC100653217 /// NTM (11731650_a_at) / RFU MAPK11 (11762145_a_at) / Fold change /veh MAPK11 (11762145_a_at) / RFU FIZ1 (11724087_x_at) / Fold change /veh FIZ1 (11724087_x_at) / RFU OASL (11726364_x_at) / Fold change /veh OASL (11726364_x_at) / RFU SOX15 (11748057_x_at) / Fold change /veh SOX15 (11748057_x_at) / RFU CD79A (11719716_a_at) / Fold change /veh CD79A (11719716_a_at) / RFU HIST1H1D (11736915_at) / Fold change /veh HIST1H1D (11736915_at) / RFU CASKIN2 (11723855_a_at) / Fold change /veh CASKIN2 (11723855_a_at) / RFU LOC730098 (11760151_x_at) / Fold change /veh LOC730098 (11760151_x_at) / RFU OR4N2 (11742367_at) / Fold change /veh OR4N2 (11742367_at) / RFU PRRT2 (11749266_a_at) / Fold change /veh PRRT2 (11749266_a_at) / RFU SNX32 (11753110_a_at) / Fold change /veh SNX32 (11753110_a_at) / RFU CDHR5 (11726645_a_at) / Fold change /veh CDHR5 (11726645_a_at) / RFU RCAN1 (11760418_a_at) / Fold change /veh RCAN1 (11760418_a_at) / RFU FAM167A (11723789_a_at) / Fold change /veh FAM167A (11723789_a_at) / RFU FAM26E (11764081_at) / Fold change /veh FAM26E (11764081_at) / RFU ISYNA1 (11749810_s_at) / Fold change /veh ISYNA1 (11749810_s_at) / RFU ACY1 (11761880_at) / Fold change /veh ACY1 (11761880_at) / RFU 11764098_at / Fold change /veh 11764098_at / RFU SAMD14 (11745864_x_at) / Fold change /veh SAMD14 (11745864_x_at) / RFU NPB (11741838_a_at) / Fold change /veh NPB (11741838_a_at) / RFU TMPRSS6 (11731388_a_at) / Fold change /veh TMPRSS6 (11731388_a_at) / RFU KRTAP10-2 (11738614_at) / Fold change /veh KRTAP10-2 (11738614_at) / RFU ARHGAP8 /// PRR5-ARHGAP8 (11727945_x_at) / Fold change /veh ARHGAP8 /// PRR5-ARHGAP8 (11727945_x_at) / RFU KRTAP5-7 /// NADSYN1 (11734609_at) / Fold change /veh KRTAP5-7 /// NADSYN1 (11734609_at) / RFU RASL12 (11751679_a_at) / Fold change /veh RASL12 (11751679_a_at) / RFU CDKN2B (11736163_a_at) / Fold change /veh CDKN2B (11736163_a_at) / RFU PRF1 (11729649_at) / Fold change /veh PRF1 (11729649_at) / RFU, ZNF638 /// ZNF638-IT1 / Fold change vs veh, ZNF638 /// ZNF638-IT1 / RFU, PANK3 / Fold change vs veh, PANK3 / RFU, SH3YL1 / Fold change vs veh, SH3YL1 / RFU, ZEB2 / Fold change vs veh, ZEB2 / RFU, NRIP1 / Fold change vs veh, NRIP1 / RFU, PTTG1IP / Fold change vs veh, PTTG1IP / RFU, CAPN2 / Fold change vs veh, CAPN2 / RFU, MED14 / Fold change vs veh, MED14 / RFU, SNORA58 / Fold change vs veh, SNORA58 / RFU, C1orf63 / Fold change vs veh, C1orf63 / RFU, LRRFIP1 / Fold change vs veh, LRRFIP1 / RFU, NDUFAF7 / Fold change vs veh, NDUFAF7 / RFU, SLC12A2 / Fold change vs veh, SLC12A2 / RFU, IBTK / Fold change vs veh, IBTK / RFU, ESF1 / Fold change vs veh, ESF1 / Fold change vs veh, TMEM50B / RFU, TAOK1 / Fold change vs veh, TAOK1 / RFU, ACBD3 / Fold change vs veh, ACBD3 / RFU, TMA16 / Fold change vs veh, TMA16 / RFU, RWDD3 / Fold change vs veh, RWDD3 / RFU, BCAT1 / Fold change vs veh, BCAT1 / RFU, EDEM3 / Fold change vs veh, EDEM3 / RFU, TMEM33 / Fold change vs veh, TMEM33 / RFU, WDR75 / Fold change vs veh, WDR75 / RFU, AHCTF1 / Fold change vs veh, AHCTF1 / RFU, TFRC / Fold change vs veh, TFRC / RFU, ZDHHC17 / Fold change vs veh, ZDHHC17 / RFU, NOM1 / Fold change vs veh, NOM1 / RFU, ARL8B / Fold change vs veh, ARL8B / RFU, ZBTB11 / Fold change vs veh, ZBTB11 / RFU, TAMM41 / Fold change vs veh, TAMM41 / RFU, KIAA1704 /// LOC100996395 / Fold change vs veh, KIAA1704 /// LOC100996395 / RFU, ING1 / Fold change vs veh, ING1 / RFU, TRMT61B / Fold change vs veh, TRMT61B / RFU, FUBP3 / Fold change vs veh, FUBP3 / RFU, TP53 / Fold change vs veh, TP53 / RFU, TNKS2 / Fold change vs veh, TNKS2 / RFU, ZFP14 / Fold change vs veh, ZFP14 / RFU, ACTR2 / Fold change vs veh, ACTR2 / RFU, PPP3R1 / Fold change vs veh, PPP3R1 / RFU, PIK3R1 / Fold change vs veh, PIK3R1 / RFU, HNRNPA1 / Fold change vs veh, HNRNPA1 / RFU, RNF170 / Fold change vs veh, RNF170 / RFU, ZNF28 / Fold change vs veh, ZNF28 / RFU, RNGTT / Fold change vs veh, RNGTT / RFU, OGT / Fold change vs veh, OGT / RFU, BRD1 / Fold change vs veh, BRD1 / RFU, MARS / Fold change vs veh, MARS / RFU, ZNF655 / Fold change vs veh, ZNF655 / RFU, FAHD1 / Fold change vs veh, FAHD1 / RFU, BDP1 / Fold change vs veh, BDP1 / RFU, LRRCC1 / Fold change vs veh, LRRCC1 / RFU, ARID1A / Fold change vs veh, ARID1A / RFU, ZNF146 / Fold change vs veh, ZNF146 / RFU, ZNF330 / Fold change vs veh, ZNF330 / RFU, GPN3 / Fold change vs veh, GPN3 / RFU, C9orf123 / Fold change vs veh, C9orf123 / RFU, N4BP2L2 / Fold change vs veh, N4BP2L2 / RFU, ARFIP1 / Fold change vs veh, ARFIP1 / RFU, FAM179B / Fold change vs veh, FAM179B / RFU, BCL10 / Fold change vs veh, BCL10 / RFU, UHRF1BP1L / Fold change vs veh, UHRF1BP1L / RFU, BET1 / Fold change vs veh, BET1 / RFU, CNOT2 / Fold change vs veh, CNOT2 / RFU, ZNF268 / Fold change vs veh, ZNF268 / Fold change vs veh, ZNF507 / RFU, DGCR2 / Fold change vs veh, DGCR2 / RFU, WDSUB1 / Fold change vs veh, WDSUB1 / Fold change vs veh, HSP90B1 /// MIR3652 / RFU, ADSS / Fold change vs veh, ADSS / RFU, GK / Fold change vs veh, GK / RFU, ZNF148 / Fold change vs veh, ZNF148 / RFU, TAF9 / Fold change vs veh, TAF9 / RFU, SLC1A5 / Fold change vs veh, SLC1A5 / RFU, SLMO2 / Fold change vs veh, SLMO2 / RFU, ABCC4 / Fold change vs veh, ABCC4 / RFU, LOC101060439 /// RAP1B / Fold change vs veh, LOC101060439 /// RAP1B / RFU, RFX7 / Fold change vs veh, RFX7 / RFU, GTPBP10 / Fold change vs veh, GTPBP10 / RFU, CNEP1R1 / Fold change vs veh, CNEP1R1 / RFU, BIVM-ERCC5 /// ERCC5 / Fold change vs veh, BIVM-ERCC5 /// ERCC5 / RFU, ILF3 / Fold change vs veh, ILF3 / RFU 11762660_at / Fold change /veh 11762660_at / RFU VCAN (11757783_s_at) / Fold change /veh VCAN (11757783_s_at) / RFU DDX43 (11728927_at) / Fold change /veh DDX43 (11728927_at) / RFU KRT8 (11758188_x_at) / Fold change /veh KRT8 (11758188_x_at) / RFU NKD1 (11759106_at) / Fold change /veh NKD1 (11759106_at) / RFU SRD5A1 (11742802_a_at) / Fold change /veh SRD5A1 (11742802_a_at) / RFU TPSAB1 /// TPSB2 (11721975_s_at) / Fold change /veh TPSAB1 /// TPSB2 (11721975_s_at) / RFU GSTM3 (11746129_a_at) / Fold change /veh GSTM3 (11746129_a_at) / RFU IL23R (11737362_x_at) / Fold change /veh IL23R (11737362_x_at) / RFU TMEM51 (11727254_a_at) / Fold change /veh TMEM51 (11727254_a_at) / RFU PIWIL2 (11732686_x_at) / Fold change /veh PIWIL2 (11732686_x_at) / RFU ORM1 (11744905_x_at) / Fold change /veh ORM1 (11744905_x_at) / RFU CCDC152 (11743942_at) / Fold change /veh CCDC152 (11743942_at) / RFU ECM1 (11717891_a_at) / Fold change /veh ECM1 (11717891_a_at) / RFU IL23R (11748794_a_at) / Fold change /veh IL23R (11748794_a_at) / RFU TNFAIP8L3 (11732012_x_at) / Fold change /veh TNFAIP8L3 (11732012_x_at) / RFU MBOAT4 (11741988_at) / Fold change /veh MBOAT4 (11741988_at) / RFU 11764193_at / Fold change /veh 11764193_at / RFU TMEM53 (11763286_at) / Fold change /veh TMEM53 (11763286_at) / RFU MAGEB2 (11727129_at) / Fold change /veh MAGEB2 (11727129_at) / RFU TMEM200A (11744735_a_at) / Fold change /veh TMEM200A (11744735_a_at) / RFU CCDC152 (11751479_a_at) / Fold change /veh CCDC152 (11751479_a_at) / RFU FAM211A (11726209_a_at) / Fold change /veh FAM211A (11726209_a_at) / RFU RGS16 (11746705_a_at) / Fold change /veh RGS16 (11746705_a_at) / RFU VCAN (11755009_s_at) / Fold change /veh VCAN (11755009_s_at) / RFU RHOB (11743442_s_at) / Fold change /veh RHOB (11743442_s_at) / RFU RGS16 (11720943_a_at) / Fold change /veh RGS16 (11720943_a_at) / RFU RGS16 (11720944_at) / Fold change /veh RGS16 (11720944_at) / RFU, VPS4B / Fold change vs veh, VPS4B / RFU, CREB1 / Fold change vs veh, CREB1 / RFU, DNAJC13 / Fold change vs veh, DNAJC13 / RFU, GNAQ / Fold change vs veh, GNAQ / RFU, CDK5R1 / Fold change vs veh, CDK5R1 / RFU, ZRANB3 / Fold change vs veh, ZRANB3 / RFU, CUL4A / Fold change vs veh, CUL4A / RFU, CCNY / Fold change vs veh, CCNY / RFU, UFL1 / Fold change vs veh, UFL1 / RFU, COG3 / Fold change vs veh, COG3 / RFU, DIAPH2 / Fold change vs veh, DIAPH2 / RFU, SKA2 / Fold change vs veh, SKA2 / RFU, AFF3 / Fold change vs veh, AFF3 / RFU, LMF1 / Fold change vs veh, LMF1 / RFU, IPO11 / Fold change vs veh, IPO11 / RFU, DFFB / Fold change vs veh, DFFB / RFU, FOXP1 / Fold change vs veh, FOXP1 / RFU, CARD8 / Fold change vs veh, CARD8 / RFU, STRN3 / Fold change vs veh, STRN3 / RFU, ADK / Fold change vs veh, ADK / RFU, RASSF2 / Fold change vs veh, RASSF2 / RFU, WIPF1 / Fold change vs veh, WIPF1 / RFU, LARP1B / Fold change vs veh, LARP1B / RFU, RASA1 / Fold change vs veh, RASA1 / RFU, RB1 / Fold change vs veh, RB1 / RFU, PPFIA1 / Fold change vs veh, PPFIA1 / RFU, MAT2A / Fold change vs veh, MAT2A / RFU, CCT5 / Fold change vs veh, CCT5 / RFU, WDR92 / Fold change vs veh, WDR92 / RFU, CUX1 / Fold change vs veh, CUX1 / RFU, TTC7A / Fold change vs veh, TTC7A / RFU, TMEM135 / Fold change vs veh, TMEM135 / RFU, DEPTOR / Fold change vs veh, DEPTOR / RFU, CPM / Fold change vs veh, CPM / RFU, DNAJB6 / Fold change vs veh, DNAJB6 / RFU, CACNA2D3 / Fold change vs veh, CACNA2D3 / RFU, DTX4 / Fold change vs veh, DTX4 / RFU, TFCP2 / Fold change vs veh, TFCP2 / RFU, GMCL1 /// GMCL1P1 / Fold change vs veh, GMCL1 /// GMCL1P1 / RFU, AEBP2 / Fold change vs veh, AEBP2 / RFU, SNHG1 /// SNORD22 /// SNORD25 /// SNORD26 /// SNORD27 /// SNORD28 /// SNORD29 /// SNORD31 / Fold change vs veh, SNHG1 /// SNORD22 /// SNORD25 /// SNORD26 /// SNORD27 /// SNORD28 /// SNORD29 /// SNORD31 / Fold change (Aza/veh), C12orf56 (ProbeSet 11735607_a_at) / Fold change (ACY-1035/veh), C12orf56 (ProbeSet 11735607_a_at) / Fold change (Aza/veh), FGFR1OP (ProbeSet 11751329_s_at) / Fold change (ACY-1035/veh), FGFR1OP (ProbeSet 11751329_s_at) / Fold change (Aza/veh), VPS36 (ProbeSet 11739960_a_at) / Fold change (ACY-1035/veh), VPS36 (ProbeSet 11739960_a_at) / RFU SYPL1 (11715823_x_at) / Fold change /veh SYPL1 (11715823_x_at) / RFU IGFBP7 (11715501_s_at) / Fold change /veh IGFBP7 (11715501_s_at) / RFU REEP3 (11722064_at) / Fold change /veh REEP3 (11722064_at) / RFU IGLL1 (11728026_x_at) / Fold change /veh IGLL1 (11728026_x_at): dose or concentration left out as unconfirmed
Conditions: ProbeSet 11727827_x_at; LIST B

Structure (SMILES): Nc1ccc(-c2cccs2)cc1NC(=O)c1ccc2c(c1)cc(C1CC1)n2CCN1CCOCC1 [ACY-1035]
- Fold change vs veh, NDUFAF7: 1.01
